According to patent US9573954B2, “Pyrazolopyrimidine compounds” (University Health Network, priority 2012, dated 2017):
pIC50: −log10 of the molar value. Where two headings read alike, the source gives them in different places.

Experiments:
[1] = tested on: colon cancer cells (HCT116); test: Cancer cell line growth inhibition, Sulforhodamine B assay, HCT116; format: cell-based; details: Homo sapiens, HCT-116, 120 h, HCT116, 5 days, SRB, read-out: Cancer Cell Line GI50 Range HCT116
Method in brief: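 GI50 is calculated from growth inhibition relative to DMSO controls, using TCA-fixed, SRB-stained protein mass read at 570 nm. Compound, 10 nM–50 μM final in 10% FBS DMEM, was applied for 5 days to HCT116 cells that had been plated 24 h before at 1000–4000/well.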

[2] = biological target: T1, human TTK (Homo sapiens, UniProt P33981); test: TTK inhibition assay (indirect ELISA); format: biochemical; details: 16 μM ATP (asterisk), read-out: TTK IC50 Range
T1 construct: Active TTK was purchased from Invitrogen as an amino terminal GST fusion of full length human TTK; purchased Invitrogen
T1 sequence (P33981 1-857): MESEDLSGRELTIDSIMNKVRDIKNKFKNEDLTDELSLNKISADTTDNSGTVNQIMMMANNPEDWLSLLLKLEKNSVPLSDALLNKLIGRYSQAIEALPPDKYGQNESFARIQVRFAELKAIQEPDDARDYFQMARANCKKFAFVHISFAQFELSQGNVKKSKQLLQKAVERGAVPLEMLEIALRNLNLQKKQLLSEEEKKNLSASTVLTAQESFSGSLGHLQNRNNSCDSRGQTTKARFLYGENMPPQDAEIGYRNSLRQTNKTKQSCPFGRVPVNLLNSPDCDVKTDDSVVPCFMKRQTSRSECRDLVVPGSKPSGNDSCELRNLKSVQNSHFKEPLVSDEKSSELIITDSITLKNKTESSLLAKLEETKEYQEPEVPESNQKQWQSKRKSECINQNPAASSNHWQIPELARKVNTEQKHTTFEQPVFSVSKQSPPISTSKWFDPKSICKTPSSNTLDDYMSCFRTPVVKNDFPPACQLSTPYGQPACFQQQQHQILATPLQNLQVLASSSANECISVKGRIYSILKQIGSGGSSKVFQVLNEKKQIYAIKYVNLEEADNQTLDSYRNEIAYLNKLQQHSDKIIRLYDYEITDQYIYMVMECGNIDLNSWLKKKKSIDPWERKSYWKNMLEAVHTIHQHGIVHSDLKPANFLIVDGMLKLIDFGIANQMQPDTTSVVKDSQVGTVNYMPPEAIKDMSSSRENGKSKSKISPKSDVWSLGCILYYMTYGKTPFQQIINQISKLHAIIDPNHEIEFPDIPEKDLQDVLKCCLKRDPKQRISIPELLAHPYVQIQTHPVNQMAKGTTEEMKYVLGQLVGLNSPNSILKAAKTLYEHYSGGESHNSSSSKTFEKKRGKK
Method in brief: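 Activity detected by indirect ELISA after compounds sat with full-length GST-TTK for 5 min prior to starting the reaction with ATP. IC50 came from a four-parameter logistic curve of % inhibition, calculated against background and uninhibited control wells.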

[3] = tested on: Colon 12 tumor initiating cells; test: Tumor-initiating cell growth inhibition, Alamar Blue assay, colon TICs; format: cell-based; details: 216 h; Table 1; colon TICs, 9 days, Alamar Blue; read-out: Tumor Initiating Cell GI50 Range Colon 12
Method in brief: (§1)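 Colon TICs (4,000/well, non-TC plates) and ovarian TICs (1,000/well, TC plates) kept in serum-free DMEM:F12 with B-27, heparin, bFGF and EGF. Compound added after 24 h at 0.1% DMSO, then 9 days (colon) or 6 days (ovarian) at 37° C. GI50 from Alamar Blue fluorescence (ex 544/em 590) after 4 h.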

[4] = tested on: Ovarian 2393A tumor initiating cells; test: Tumor-initiating cell growth inhibition, Alamar Blue assay, ovarian TICs; format: cell-based; details: 144 h; Table 1; ovarian TICs, 6 days, Alamar Blue; read-out: Tumor Initiating Cell GI50 Range Ovarian 2393A
Method in brief: as §1

[5] = tested on: breast cancer cells (MDA-MB-468); test: Cancer cell line growth inhibition, Sulforhodamine B assay, MDA-MB-468; format: cell-based; details: Homo sapiens, MDA-MB-468, 120 h, Table 1; MDA-MB-468, 5 days, SRB; read-out: Cancer Cell Line GI50 Range MDA-MB-468
Method in brief: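 Sulforhodamine B staining (TCA-fixed, read at 570 nm) estimates cell mass after 5-day compound treatment of MDA-MB-468 cells, final concentrations 10 nM to 50 μM in 10% FBS DMEM. GI50 derived from growth inhibition versus DMSO controls.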

[6] = tested on: ovarian cancer cells (PA-1); test: Cancer cell line growth inhibition, Sulforhodamine B assay, PA-1; format: cell-based; details: 120 h, PA-1, 5 days, SRB, read-out: Cancer Cell Line GI50 Range PA-1
Procedure: (§2) Breast cancer cells (MDA-MB-231 and MDA-MB-468), colon cancer cells (HCT116) and ovarian cancer cells (PA-1 and OVCAR-3) were seeded (1000 to 4000 in 80 μl per well depending on the cell growth rate) into 96 well plates 24 hours before compound overlay. Compounds were prepared as 10 mM stock solutions in 100% DMSO which were diluted with DMEM (Dulbecco's Modified Eagle's Medium) cell growth Medium (Invitrogen, Burlington, ON, Canada) containing 10% FBS (Fetal Bovine Serum) to concentrations ranging from 50 nM to 250 μM. Aliquots (20 μl) from each concentration were overlaid to 80 μl of the pre-seeded cells in the 96 well plates to make final concentrations of 10 nM to 50 μM. The cells were cultured for 5 days before the Sulforhodamine B assay (SRB) was performed to determine the compound's cell growth inhibition activity.
(§3) Sulforhodamine B (purchased from Sigma, Oakville, ON, Canada) is a water-soluble dye that binds to the basic amino acids of the cellular proteins. Thus, colorimetric measurement of the bound dye provides an estimate of the total protein mass that is related to the cell number. the cells are fixed in situ by gently aspirating off the culture media and adding 50 μl ice cold 10% Trichloroacetic Acid (TCA) per well and incubate at 4° C. for 30-60 min, The plates are washed with H2O five times and allowed to air dry for 5 min. Addition of 50 μl 0.4% (w/v) SRB solution in 1% (v/v) acetic acid to each well and incubation for 30 min at RT completes the staining reaction. Following staining, plates are washed four times with 1% acetic acid to remove unbound dye and then allowed to air dry for 5 min. The stain is solubilized with 100 μl of 10 mM Tris pH 10.5 per well. Absorbance is read at 570 nm.
(§4) The percentage (%) of relative growth inhibition was calculated by comparing to DMSO treated only cells (100%). GI50's were determined for compounds with cytotoxic activity. The GI50 was calculated using GraphPad PRISM software (GraphPad Software, Inc., San Diego, Calif., USA).
In Table 1 below, GI50 value ranges for compound examples against breast cancer cell lines (MDA-MB-468), colon cancer cell lines (HCT116) and ovarian cancer cell lines (PA-1) are given.
(§5) In Table 2 below, GI50 value ranges for compound examples against breast cancer cell lines (MDA-MB-231), colon cancer cell lines (HCT116) and ovarian cancer cell lines (PA-1) are given.

[7] = tested on: breast cancer cells (MDA-MB-231); test: Cancer cell line growth inhibition, Sulforhodamine B assay, MDA-MB-231; format: cell-based; details: Homo sapiens, 120 h; Table 2; MDA-MB-231, 5 days, SRB; read-out: Cancer Cell Line GI50 Range MDA-MB-231
Procedure: as §2, §3, §4, §5

Row | Compound | GI50 ([1]; Table 1) [nM] | pIC50 ([2]; Table 1) | GI50 [3] [nM] | GI50 [4] [nM] | GI50 [5] [nM] | GI50 ([6]; Table 1) [nM] | GI50 ([1]; Table 2) [nM] | pIC50 ([2]; Table 2) | GI50 [7] [nM] | GI50 ([6]; Table 2) [nM]
1 | O=C(NC1CC1)c1ccc(-c2cnn3c(NCC4CCOCC4)nc(OC4CCOCC4)nc23)cc1Cl [Example A14, 2-chloro-N-cyclopropyl-4-(4-(((tetrahydro-2H-pyran-4-yl)methyl)amino)-2-((tetrahydro-2H-pyran-4-yl)oxy)pyrazolo[1,5-a][1,3,5]triazin-8-yl)benzamide] | 100 to 500 | > 7.00 | > 500 | > 500 | > 500 | 100 to 500 | – | – | – | –
2 | O=C(NC1CC1)c1ccc(-c2cnn3c(NCC4CCOCC4)nc(NC4CCCC4)nc23)cc1 [Example A15, 4-(2-(cyclopentylamino)-4-(((tetrahydro-2H-pyran-4-yl)methyl)amino)pyrazolo[1,5-a][1,3,5]triazin-8-yl)-N-cyclopropylbenzamide] | 100 to 500 | > 7.00 | 100 to 500 | 100 to 500 | > 500 | 100 to 500 | – | – | – | –
3 | Cc1cc(-c2cnn3c(NCC4CCOCC4)cc(NCC(C)(C)O)nc23)ccc1C(=O)NC1CC1 [Example B10, N-cyclopropyl-4-(5-((2-hydroxy-2-methylpropyl)amino)-7-(((tetrahydro-2H-pyran-4-yl)methyl)amino)pyrazolo[1,5-a]pyrimidin-3-yl)-2-methylbenzamide] | – | – | – | – | – | – | 100 to 500 | > 7.00 | > 500 | 100 to 500
4 | Cc1cc(-c2cnn3c(NCC4CCOCC4)cc(N4CCOCC4)nc23)ccc1C(=O)NC1CC1 [Example B11, N-cyclopropyl-2-methyl-4-(5-morpholino-7-(((tetrahydro-2H-pyran-4-yl)methyl)amino)pyrazolo[1,5-a]pyrimidin-3-yl)benzamide] | – | – | – | – | – | – | 100 to 500 | > 7.00 | 100 to 500 | 100 to 500
5 | Cc1cc(-c2cnn3c(NCC4CCOCC4)cc(OC4CCCCC4)nc23)ccc1C(=O)NC1CC1 [Example B23, 4-(5-(cyclohexyloxy)-7-(((tetrahydro-2H-pyran-4-yl)methyl)amino)pyrazolo[1,5-a]pyrimidin-3-yl)-N-cyclopropyl-2-methylbenzamide] | – | – | – | – | – | – | 100 to 500 | > 7.00 | 100 to 500 | 100 to 500
6 | Cc1cc(-c2cnn3c(NCC(C)C)cc(NC4CCOCC4)nc23)ccc1C(=O)NC1CC1 [Example B26, N-cyclopropyl-4-(7-(isobutylamino)-5-((tetrahydro-2H-pyran-4-yl)amino)pyrazolo[1,5-a]pyrimidin-3-yl)-2-methylbenzamide] | – | – | – | – | – | – | ≤ 100 | > 7.00 | 100 to 500 | ≤ 100

Results, then the compound that gave them:

Row | GI50 ([1]; Table 1) [nM] | pIC50 ([2]; Table 1) | GI50 [3] [nM] | GI50 [4] [nM] | GI50 [5] [nM] | GI50 ([6]; Table 1) [nM] | GI50 ([1]; Table 2) [nM] | pIC50 ([2]; Table 2) | GI50 [7] [nM] | GI50 ([6]; Table 2) [nM] | Compound
7 | – | – | – | – | – | – | ≤ 100 | > 7.00 | 100 to 500 | ≤ 100 | Cc1cc(-c2cnn3c(NCC4CCOCC4)cc(OC4CCCC4)nc23)ccc1C(=O)NC1CC1 [Example B21, 4-(5-(cyclopentyloxy)-7-(((tetrahydro-2H-pyran-4-yl)methyl)amino)pyrazolo[1,5-a]pyrimidin-3-yl)-N-cyclopropyl-2-methylbenzamide]
8 | – | – | – | – | – | – | ≤ 100 | > 7.00 | ≤ 100 | ≤ 100 | Cc1cc(-c2cnn3c(NCCC4CCOCC4)cc(Oc4cccnc4)nc23)ccc1C(=O)NC1CC1 [Example B22, N-cyclopropyl-2-methyl-4-(5-(pyridin-3-yloxy)-7-((2-(tetrahydro-2H-pyran-4-yl)ethyl)amino)pyrazolo[1,5-a]pyrimidin-3-yl)benzamide]
9 | – | – | – | – | – | – | ≤ 100 | > 7.00 | ≤ 100 | ≤ 100 | Cc1cc(-c2cnn3c(NCC4CCOCC4)cc(NC4CCCCC4)nc23)ccc1C(=O)NC1CC1 [Example B24, 4-(5-(cyclohexylamino)-7-(((tetrahydro-2H-pyran-4-yl)methyl)amino)pyrazolo[1,5-a]pyrimidin-3-yl)-N-cyclopropyl-2-methylbenzamide]
10 | – | – | – | – | – | – | ≤ 100 | > 7.00 | ≤ 100 | ≤ 100 | Cc1cc(-c2cnn3c(NCC(C)C)cc(Oc4cccnc4)nc23)ccc1C(=O)NC1CC1 [Example B25, N-cyclopropyl-4-(7-(isobutylamino)-5-(pyridin-3-yloxy)pyrazolo[1,5-a]pyrimidin-3-yl)-2-methylbenzamide]
